The text below walks through data of patent publication US9532957B2, “Method of stabilizing reduced coenzyme Q10” (Kaneka Corporation, priority 2001, dated 2017).

Data set [1] in a line: Oxidation stability of reduced coenzyme Q10 ethanol solution with L-ascorbic acid, stirred in air at 50° C. Format: physicochemical. The following applies: 1 part L-ascorbic acid per 100 parts solvent, after 50 hours. How it is done:
In the examples, purity of reduced coenzyme Q10 and the weight ratio of reduced coenzyme Q10/oxidized coenzyme Q10 were determined by the HFLC analysis specified below. The reduced coenzyme Q10 purity values as determined, however, are by no means indicative of the limit purity value attainable in accordance with the present invention. Likewise, the ratio of the reduced coenzyme Q10 in the weight ratio of reduced coenzyme Q10/oxidized coenzyme Q10 values obtained never indicates the upper limit to that ratio.
Column; SYMMETRY C18 (product of Waters), 250 mm (in length), 4.6 mm (in inside diameter): mobile phase; C2H5OH/CH3OH=4/3 (v/v); detection wavelength; 210 nm; flow rate; 1 ml/min: retention time of reduced coenzyme Q10; 9.1 min: retention time of oxidized coenzyme Q10; 13.3 min.
Using the reduced coenzyme Q10 crystal obtained in Example 1, an ethanol solution containing 5 parts by weight of reduced coenzyme Q10 relative to 100 parts by weight of ethanol was prepared. To this ethanol solution, L-ascorbic acid was added so that 1 part by weight of L-ascorbic acid was contained relative to 100 parts by weight of the solvent (20 parts by weight relative to 100 parts by weight of reduced coenzyme Q10), and the solution was stirred in air at 50° C. […]

The nature of data set [2]: Preliminary investigations on stabilization of reduced coenzyme Q10. Format: physicochemical.

For the compound `O=C1O[C@H]([C@@H](O)CO)C(O)=C1O` [L-ascorbic acid], the “X: The residual ratio of ascorbic acid” value in data set [1] amounted to 85.2%.
In the case of `O=C1O[C@H]([C@@H](O)CO)C(O)=C1O` [vitamin C], the “stabilization effect on reduced coenzyme Q10” value is “has a stabilization effect” in data set [2] (preliminary investigations) and “very poor” in data set [2] (used in combination with polyhydric alcohols having 3 or more OH, such as glycerine).
In the case of Vitamin E [reference compound], in data set [2] (preliminary investigations), the “stabilization effect on reduced coenzyme Q10” value was “does not have the effect”.
